Results as given in US9969749B2, “Inhibitors of IRAK4 activity” (MERCK SHARP & DOHME CORP., priority 2014, dated 2018).

What follows are molecules tested against IRAK4 (Homo sapiens (Human), UniProt Q9NWZ3) (assay: IRAK4 Kinase Assay (IMAP fluorescence polarization)). Details: 0.5 nM GST tagged IRAK4, 100 μM ATP, 100 nM fluorescent peptide substrate RP7030, 30 minutes at 25° C.
Format: biochemical
Method: The kinase activity of IRAK4 is determined by its ability to catalyze the phosphorylation of a fluorescent polypeptide substrate. The extent of phosphorylation is measured using the IMAP technology (Molecular Devices) where the phosphorylated fluorescent substrate binds to the large M(III)-based nanoparticles which reduces the rotational speed of the substrate and thus increases its fluorescent polarization (FP).
20 μL reaction mixture contains 10 mM TriHCl, pH 7.2, 0.5 nM GST tagged IRAK4 (SignalChem), 100 nM fluorescent peptide substrate (RP7030, Molecular Devices), 100 μM ATP, 1 mM DDT, 1 mM MgCl2, and 0.01% Tween 20. The reaction is initiated by the addition of ATP. After incubation for 30 minutes at 25° C., 60 μL of Progressive IMAP Reagent (Molecular Devices) is added to stop the reaction. Change in RP7030's FP is determined by a FP reader (Analyst HT, LJL BioSystems).

Sequence of IRAK4 (Q9NWZ3 whole entry): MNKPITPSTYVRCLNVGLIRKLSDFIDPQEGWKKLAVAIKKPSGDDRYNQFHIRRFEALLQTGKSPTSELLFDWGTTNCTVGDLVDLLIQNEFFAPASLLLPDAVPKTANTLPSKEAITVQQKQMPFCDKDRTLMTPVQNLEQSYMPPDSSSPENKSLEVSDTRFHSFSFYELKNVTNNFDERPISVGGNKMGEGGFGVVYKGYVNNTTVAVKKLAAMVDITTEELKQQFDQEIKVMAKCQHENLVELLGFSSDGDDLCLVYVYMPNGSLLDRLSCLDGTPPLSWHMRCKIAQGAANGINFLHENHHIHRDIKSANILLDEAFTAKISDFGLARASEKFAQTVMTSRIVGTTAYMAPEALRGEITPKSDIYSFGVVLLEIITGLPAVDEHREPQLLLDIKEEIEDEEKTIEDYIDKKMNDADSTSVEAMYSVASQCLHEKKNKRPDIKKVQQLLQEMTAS

Row | SMILES | IC50
1 | N#Cc1cncc(-c2ccc3ncnc(N[C@H]4CC[C@H](N5CCOCC5)CC4)c3c2)c1 [Example 1-98, 5-(4-{[trans-4-(morpholin-4-yl)cyclohexyl]amino}quinazolin-6-yl)pyridine-3-carbonitrile] | 21 nM
2 | c1nc(N[C@H]2CC[C@H](N3CCOCC3)CC2)c2cc(-c3cn[nH]c3)ccc2n1 [Example 1-82, N-(trans-4-morpholin-4-ylcyclohexyl)-6-(1H-pyrazol-4-yl)quinazolin-4-amine] | 2 nM
3 | CN(C)[C@H]1CC[C@H](Nc2ncnc3ccc(-c4cnc5[nH]ccc5c4)cc23)CC1 [Example 1-55, trans-N,N-dimethyl-N′-[6-(1H-pyrrolo[2,3-b]pyridin-5-yl)quinazolin-4-yl]cyclohexane-1,4-diamine] | 46 nM
4 | COc1ccncc1-c1ccc2ncnc(N[C@H]3CC[C@H](N(C)C)CC3)c2c1 [Example 1-35, trans-N′-[6-(4-methoxypyridin-3-yl)quinazolin-4-yl]-N,N-dimethylcyclohexane-1,4-diamine] | 394 nM
5 | C[C@@H]1CN([C@H]2CC[C@H](Nc3ncnc4ccc(-c5cnc(F)c(N)c5)cc34)CC2)C[C@H](C)O1 [Example 5-19, 6-(5-amino-6-fluoropyridin-3-yl)-N-{trans-4-[(2R,6S)-2,6-dimethylmorpholin-4-yl]cyclohexyl}quinazolin-4-amine] | 1 nM
6 | Cc1noc(C)c1-c1ccc2ncnc(N[C@H]3CC[C@H](N(C)C)CC3)c2c1 [Example 1-24, trans-N′-[6-(3,5-dimethylisoxazol-4-yl)quinazolin-4-yl]-N,N-dimethylcyclohexane-1,4-diamine] | 333 nM
7 | COC(=O)c1cncc(-c2ccc3ncnc(N[C@H]4CC[C@H](N(C)C)CC4)c3c2)c1 [Example 1-31, methyl 5-(4-{[trans-4-(dimethylamino)cyclohexyl]amino}quinazolin-6-yl)pyridine-3-carboxylate] | 45 nM
8 | CNc1cncc(-c2ccc3ncnc(N[C@H]4CC[C@H](N5CCC(F)CC5)CC4)c3c2)c1 [Example 5-9, N-[trans-4-(4-fluoropiperidin-1-yl)cyclohexyl]-6-[5-(methylamino)pyridin-3-yl]quinazolin-4-amine] | 3 nM
9 | CN(C)[C@H]1CC[C@H](Nc2ncnc3ccc(-c4cnn(C5CCCCO5)c4)cc23)CC1 (stereo partly drawn) [Example 1-16, trans-N,N-dimethyl-N′-{6-[1-(tetrahydro-2H-pyran-2-yl)-1H-pyrazol-4-yl]quinazolin-4-yl}cyclohexane-1,4-diamine] | 217 nM
10 | CN(C)C1CCC(Nc2ncnc3ccc(-c4ccccc4)cc23)CC1 (single isomer, unassigned) [Example 1-5, cis or trans-N,N-dimethyl-N′-(6-phenylquinazolin-4-yl)cyclohexane-1,4-diamine] | 19 nM
11 | CN(C)[C@H]1CC[C@H](Nc2ncnc3ccc(-c4ccncc4C#N)cc23)CC1 [Example 1-20, 4-(4-{[trans-4-(dimethylamino)cyclohexyl]amino}quinazolin-6-yl)pyridine-3-carbonitrile] | 85 nM
12 | Oc1cncc(-c2ccc3ncnc(N[C@H]4CC[C@H](N5CCC(F)(F)CC5)CC4)c3c2)c1 [Example 5-17, 5-(4-{[trans-4-(4,4-difluoropiperidin-1-yl)cyclohexyl]amino}quinazolin-6-yl)pyridin-3-ol] | < 0.5 nM
13 | Cc1onc(-c2ccccc2)c1-c1ccc2ncnc(N[C@H]3CC[C@H](N(C)C)CC3)c2c1 [Example 1-26, trans-N,N-dimethyl-N′-[6-(5-methyl-3-phenylisoxazol-4-yl)quinazolin-4-yl]cyclohexane-1,4-diamine] | 698 nM
14 | OCc1cncc(-c2ccc3ncnc(N[C@H]4CC[C@H](N5CCOCC5)CC4)c3c2)c1 [Example 1-94, [5-(4-{[trans-4-(morpholin-4-yl)cyclohexyl]amino}quinazolin-6-yl)pyridin-3-yl]methanol] | 10 nM
15 | CN1CCN([C@H]2CC[C@H](Nc3ncnc4ccc(-c5cncc(O)c5)cc34)CC2)CC1 [Example 5-5, 5-(4-{[trans-4-(4-methylpiperazin-1-yl)cyclohexyl]amino}quinazolin-6-yl)pyridin-3-ol] | 1 nM
16 | c1cc(-c2ccc3ncnc(N[C@H]4CC[C@H](N5CCOCC5)CC4)c3c2)c2cc[nH]c2c1 [Example 1-88, 6-(1H-indol-4-yl)-N-[trans-4-(morpholin-4-yl)cyclohexyl]quinazolin-4-amine] | 100 nM
17 | CNc1cncc(-c2ccc3ncnc(N[C@H]4CC[C@H](N5CCC[C@@H](CN6CCOCC6)C5)CC4)c3c2)c1 [Example 5-12, 6-[5-(methylamino)pyridin-3-yl]-N-{trans-4-[(3S)-3-(morpholin-4-ylmethyl)piperidin-1-yl]cyclohexyl}quinazolin-4-amine] | 5 nM

More lines, now with the values ahead:

Row | IC50 | SMILES
18 | 4 nM | Nc1cc(-c2ccc3ncnc(N[C@H]4CC[C@H](N5CCO[C@@H](CF)C5)CC4)c3c2)cnc1F [Example 5-22, 6-(5-amino-6-fluoropyridin-3-yl)-N-{trans-4-[(2R)-2-(fluoromethyl)morpholin-4-yl]cyclohexyl}quinazolin-4-amine]
19 | 37 nM | FC(F)c1cncc(-c2ccc3ncnc(N[C@H]4CC[C@H](N5CCOCC5)CC4)c3c2)c1 [Example 2-35, 6-[5-(difluoromethyl)pyridin-3-yl]-N-[trans-4-(morpholin-4-yl)cyclohexyl]quinazolin-4-amine]
20 | 6030 nM | CCOC(=O)c1cn(C)nc1-c1ccc2ncnc(N[C@H]3CC[C@H](N4CCOCC4)CC3)c2c1 [Example 2-1, Ethyl 1-methyl-3-(4-(((trans)-4-morpholinocyclohexyl)amino)quinazolin-6-yl)-1H-pyrazole-4-carboxylate]
21 | 5 nM | Cn1cc(-c2ccc3ncnc(N[C@H]4CC[C@H](N(C)C)CC4)c3c2)cn1 [Example 1-9, trans-N,N-dimethyl-N′-[6-(1-methyl-1H-pyrazol-4-yl)quinazolin-4-yl]cyclohexane-1,4-diamine]
22 | < 0.5 nM | Oc1cc(-c2ccc3ncnc(N[C@H]4CC[C@H](N5CCC(F)(F)CC5)CC4)c3c2)cnc1F [Example 5-1, 5-(4-{[Trans-4-(4,4-difluoropiperidin-1-yl)cyclohexyl]amino}quinazolin-6-yl)-2-fluoropyridin-3-ol]
23 | < 0.5 nM | Oc1cc(-c2ccc3ncnc(N[C@H]4CC[C@H](N5CCOCC5)CC4)c3c2)cnc1F [Example 2-30, 2-fluoro-5-(4-{[trans-4-(morpholin-4-yl)cyclohexyl]amino}quinazolin-6-yl)pyridin-3-ol]
24 | < 0.5 nM | Oc1cncc(-c2ccc3ncnc(N[C@H]4CC[C@H](N5CCC(F)CC5)CC4)c3c2)c1 [Example 5-18, 5-(4-{[trans-4-(4-fluoropiperidin-1-yl)cyclohexyl]amino}quinazolin-6-yl)pyridin-3-ol]
25 | 6 nM | Nc1cc(-c2ccc3ncnc(N[C@H]4CC[C@H](N5CCO[C@H](CF)C5)CC4)c3c2)cnc1F [Example 5-23, 6-(5-amino-6-fluoropyridin-3-yl)-N-{trans-4-[(2S)-2-(fluoromethyl)morpholin-4-yl]cyclohexyl}quinazolin-4-amine]
26 | 17 nM | COc1ncc(-c2ccc3ncnc(N[C@H]4CC[C@H](N5CCOCC5)CC4)c3c2)cc1N [Example 1-71, 6-(5-amino-6-methoxypyridin-3-yl)-N-(trans-4-morpholin-4-ylcyclohexyl)quinazolin-4-amine]
27 | 43 nM | CN(C)[C@H]1CC[C@H](Nc2ncnc3ccc(-c4ccc(C#N)nc4)cc23)CC1 [Example 1-27, 5-(4-{[trans-4-(dimethylamino)cyclohexyl]amino}quinazolin-6-yl)pyridine-2-carbonitrile]
28 | 2 nM | Nc1cc(-c2ccc3ncnc(N[C@H]4CC[C@H](N5CCC(F)(F)CC5)CC4)c3c2)cnc1F [Example 5-15, 6-(5-amino-6-fluoropyridin-3-yl)-N-[trans-4-(4,4-difluoropiperidin-1-yl)cyclohexyl]quinazolin-4-amine]
29 | < 0.5 nM | Oc1cncc(-c2ccc3ncnc(N[C@H]4CC[C@H](N5CCOCC5)CC4)c3c2)c1 [Example 1-65, 5-(4-{[trans-4-(morpholin-4-yl)cyclohexyl]amino}quinazolin-6-yl)pyridin-3-ol]
30 | 19 nM | CN(C)[C@H]1CC[C@H](Nc2ncnc3ccc(-c4cnc(N)nc4)cc23)CC1 [Example 1-29, trans-N′-[6-(2-aminopyrimidin-5-yl)quinazolin-4-yl]-N,N-dimethylcyclohexane-1,4-diamine]
31 | 2 nM | CNc1cncc(-c2ccc3ncnc(N[C@H]4CC[C@H](N5CCC[C@H](CN6CCOCC6)C5)CC4)c3c2)c1 [Example 5-11, 6-[5-(methylamino)pyridin-3-yl]-N-{trans-4-[(3R)-3-(morpholin-4-ylmethyl)piperidin-1-yl]cyclohexyl}quinazolin-4-amine]
32 | 43 nM | CN(C)[C@H]1CC[C@H](Nc2ncnc3ccc(-c4cccnc4C#N)cc23)CC1 [Example 1-39, 3-(4-{[trans-4-(dimethylamino)cyclohexyl]amino}quinazolin-6-yl)pyridine-2-carbonitrile]
33 | 17 nM | CN(C)[C@H]1CC[C@H](Nc2ncnc3ccc(-c4cc[nH]n4)cc23)CC1 [Example 1-12, trans-N,N-dimethyl-N′-[6-(1H-pyrazol-3-yl)quinazolin-4-yl]cyclohexane-1,4-diamine]
34 | 9 nM | CN(C)[C@H]1CC[C@H](Nc2ncnc3ccc(-c4cnoc4)cc23)CC1 [Example 1-32, trans-N′-[6-(isoxazol-4-yl)quinazolin-4yl]-N,N-dimethylcyclohexane-1,4-diamine]
